Values after ≈ are worked out from the molar mass of the structure shown. Like-named read-outs stand apart in the source and are kept apart here. Each block holds one compound with its values, some of them ahead of it.
Legend:
RXFP1 = molecular target: T1, RXFP1 (Homo sapiens, UniProt Q9HBX9); test: RXFP1 cAMP assay in HEK293-RXFP1 cells (HTRF); format: cell-based
T1 construct: expressed in transfected cells
T1 sequence (Q9HBX9 1-757): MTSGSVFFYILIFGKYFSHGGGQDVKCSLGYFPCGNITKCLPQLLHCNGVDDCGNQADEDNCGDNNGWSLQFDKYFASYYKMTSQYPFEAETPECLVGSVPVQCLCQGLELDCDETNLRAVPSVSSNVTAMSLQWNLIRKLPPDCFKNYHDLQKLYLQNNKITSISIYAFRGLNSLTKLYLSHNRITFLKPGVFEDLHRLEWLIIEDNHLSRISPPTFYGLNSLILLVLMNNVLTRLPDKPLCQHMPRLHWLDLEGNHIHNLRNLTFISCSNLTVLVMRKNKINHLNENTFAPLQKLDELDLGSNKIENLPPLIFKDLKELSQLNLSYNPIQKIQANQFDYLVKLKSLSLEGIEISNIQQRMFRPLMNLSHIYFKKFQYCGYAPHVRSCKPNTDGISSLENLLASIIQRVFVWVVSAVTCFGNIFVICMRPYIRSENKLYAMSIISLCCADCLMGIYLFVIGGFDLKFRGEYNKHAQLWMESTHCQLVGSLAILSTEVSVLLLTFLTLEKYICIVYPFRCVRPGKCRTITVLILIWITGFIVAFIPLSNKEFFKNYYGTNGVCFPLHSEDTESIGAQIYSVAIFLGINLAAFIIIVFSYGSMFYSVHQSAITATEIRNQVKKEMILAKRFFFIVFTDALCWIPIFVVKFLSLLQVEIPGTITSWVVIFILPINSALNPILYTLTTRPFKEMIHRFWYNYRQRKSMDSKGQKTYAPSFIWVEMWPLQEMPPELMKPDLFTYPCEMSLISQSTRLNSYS
Experimental: The RXFP1 receptor couples to the Gs protein, and activation of the receptor results in stimulation of cAMP production. […] The TR-FRET between the K-α-cAMP and cAMP-d2 is disrupted by cAMP in the cell lysates, thus allowing TR-FRET detection in a homogenous format that is suitable for HTS. […] The primary screen was carried out in 1536-well format, however, because of a more robust signal to background ratio, all subsequent follow-up experiments were carried out in 384-well format.
For the primary screen, HEK293-RXFP1 cells were seeded at 2,000 cells/well in 3 μL/well media with a MultiDrop Combi dispenser (Thermo Scientific, Logan, Utah), and allowed to attach overnight at 37° C., 5% CO2. […] The cells were allowed to be stimulated with the compounds for 30 minutes at 37° C., 5% CO2, after which, 1 μL/well of each HTRF detection reagent was dispensed with a BioRAPTR FRD dispenser. The detection reagents were diluted before addition as follows: K-α-cAMP antibody at 1:20 and cAMP-d2 at 1:18 in HTRF lysis buffer (supplied by the assay kit). The plates were incubated for 30 minute at room temperature, and then the signal was read on a ViewLux plate reader (PerkinElmer, Waltham, Mass.).
The assay was run according to the following protocol:
Max Response indicates what the maximal amount of functional activity induced by the compound is, as a percentage of the maximal receptor activation induced by high concentrations of forskolin.

cAMP in THP-1 cells = test: cyclic AMP assay in THP-1 cells; format: cell-based; conditions: Homo sapiens
Experimental: This Example illustrates the cyclic AMP assay in THP-1 cells. THP-1 cells were propagated in RPMI-1640 supplemented with 20% FBS, 0.05 mM β-mercaptoethanol, 100 U/mL penicillin and 100 μg/mL streptomycin at 37° C. in 5% CO2. Before assaying for cAMP response, cells were serum starved in RPMI-1640 supplemented with 0.05 mM (3-mercaptoethanol, 100 U/mL penicillin and 100 μg/mL streptomycin at 37° C. in 5% CO2 for 16 hrs. For 384-well format assays, cells were seeded as 30,000 cells/well in 30 μL/well media with a MultiDrop Combi dispenser (Thermo Scientific, Waltham, Mass.). Subsequently, 2 μL/well of 1.6 mM Ro 20-1724 and 160 uM forskolin in PBS+ (DPBS, 1 mM CaCl2, 0.5 mM MgCl2, 0.05% BSA, 0.005% Tween 20) was dispensed using a BioRAPTR FRD dispenser (Beckman Coulter, Brea, Calif.). Immediately after, 0.25 μL/well of compound solutions in DMSO was dispensed with CyBi-well dispenser (CyBio, Jena, Germany). The cells were allowed to be stimulated with compounds for 30 min at 37° C. in 5% CO2, after which, 8 μL/well of each HTRF cAMP HiRange kit (CisBio, Bedford, Mass.) detection reagent was dispensed with a BioRAPTR FRD dispenser. The detection reagents were diluted as such: K-α-cAMP antibody at 1:20 and cAMP-d2 at 1:18 in HTRF lysis buffer (supplied by the assay kit). The plates were incubated for 30 min at room temperature before the signal was read on an Envision plate reader (PerkinElmer, Waltham, Mass.).

[1] = test system: VEGF gene expression in THP1 cells; test: VEGF gene expression in THP1 cells (qRT-PCR); format: cell-based, human; conditions: 2 hours treatment, normalized to GAPDH
Source text: This example illustrates the activation of VEGF expression in THP1 cells by several embodiments of the disclosure.
THP1 cells (human acute monocytic leukemia cell line) were used to analyze the stimulation of VEGF gene expression after treatment with relaxin or compounds. The VEGF stimulation in these cultured endometrial cells is a well-established property of relaxin.^19 This effect is most probably responsible for the observed angiogenic and neovascularization properties of relaxin in various settings.^20 400,000 THP1 cells (0.4 mL at 1×10^6 cells/mL) in test media (RPMI-1640 without phenol red, 0.5% FBS, Ix Pen/Strep, 0.05 mM of 2-mercaptoethanol) were seeded in each well on a 24-well plate. After 24 hours incubation at 37° C., 5% CO2, relaxin or compounds were added for 2 hours. […] Quantitative real time RT-PCR for VEGF and GAPDH gene expression was done using a Roche LightCycler 480 (Roche Diagnostics, Indianapolis, Ind.) with the appropriate set of primers and probes spanning different exons. The relative fold change in VEGF mRNA level was calculated by the comparative Ct (2-ΔΔ^Ct) method using GAPDH expression for normalization of RNA. […]

PBS solubility = format: physicochemical; conditions: aqueous buffer
RXFP2 = molecular target: T2, RXFP2 (Homo sapiens, UniProt Q8WXD0); test: RXFP2 cAMP assay in HEK293-RXFP2 cells; format: cell-based
T2 construct: expressed in transfected cells
T2 sequence (Q8WXD0 whole entry, species assumed): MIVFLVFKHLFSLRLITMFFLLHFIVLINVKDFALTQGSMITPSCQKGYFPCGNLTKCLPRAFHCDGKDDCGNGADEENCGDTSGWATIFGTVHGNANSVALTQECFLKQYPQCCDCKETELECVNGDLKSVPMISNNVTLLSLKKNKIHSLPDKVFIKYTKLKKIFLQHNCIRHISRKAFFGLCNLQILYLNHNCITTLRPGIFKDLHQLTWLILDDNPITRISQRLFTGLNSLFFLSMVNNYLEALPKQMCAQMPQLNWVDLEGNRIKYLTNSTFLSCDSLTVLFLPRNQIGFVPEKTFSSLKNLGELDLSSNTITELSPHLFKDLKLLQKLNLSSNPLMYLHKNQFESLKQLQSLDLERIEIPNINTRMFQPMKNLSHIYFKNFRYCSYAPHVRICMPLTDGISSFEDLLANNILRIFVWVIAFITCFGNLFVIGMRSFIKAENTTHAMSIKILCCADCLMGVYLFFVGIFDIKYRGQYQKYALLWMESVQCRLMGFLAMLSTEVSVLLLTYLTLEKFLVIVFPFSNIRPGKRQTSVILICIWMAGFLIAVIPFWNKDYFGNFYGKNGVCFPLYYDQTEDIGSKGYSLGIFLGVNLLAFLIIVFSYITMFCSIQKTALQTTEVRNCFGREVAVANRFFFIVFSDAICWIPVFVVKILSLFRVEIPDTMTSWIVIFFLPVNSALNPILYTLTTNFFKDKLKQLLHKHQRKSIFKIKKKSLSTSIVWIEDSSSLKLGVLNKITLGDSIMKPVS
Experimental: HEK293 cells stably transfected with RXFP2, the cognate receptor for another relaxin family peptide, insulin-like 3, (HEK293-RXFP2) was used to test compound specificity towards the RXFP1 receptor. For this assay, cells were seeded at 8,000 cells/well in 30 µL/well of media with a MultiDrop Combi dispenser (Thermo Scientific), and allowed to attach overnight at 37° C., 5% CO2. Next, 2 µL/well of 1.6 mM Ro 20-1724 solution in PBS+(DPBS, 1 mM CaCl2, 0.5 mM MgCl2, 0.05% BSA, 0.005% Tween 20) were dispensed using a BioRAPTR FRD dispenser (Beckman Coulter, Brea, Calif.), followed addition of 0.25 μL/well of compound solution in DMSO with CyBi-well dispenser (CyBio, Jena, Germany). The cells were allowed to be stimulated with the compounds for 30 minutes at 37° C., 5% CO2, after which, 8 μL/well of each HTRF detection reagent (diluted according to assay kit directions in HTRF lysis buffer) was dispensed with a BioRAPTR FRD dispenser. The plates were incubated for 30 minute at 37° C., and then the signal was read on a ViewLux plate reader (PerkinElmer, Waltham, Mass.).

[2] = percentage of the maximal receptor activation induced by high concentrations of forskolin, Tables 1-7, read-out: Max Response
[3] = read-out: RXFP1 AC50 (μM, Max. Resp.): Max. Resp.
[4] = 0.5 h, THP-1 cells, cAMP HTRF, with Ro 20-1724 and forskolin, 30 min, read-out: EC50
[5] = HEK293-RXFP1 cells, cAMP HTRF, with Ro 20-1724, Tables 1-7, read-out: RXFP1 AC50

Emax (RXFP1; [2]): 31%
SMILES: CCOc1ccccc1C(=O)Nc1ccccc1-c1nc2cc(C(F)(F)F)ccc2[nH]1 [Example 141]

Emax (RXFP1; [2]): 85%
SMILES: C#Cc1cccc(NC(=O)c2ccccc2NC(=O)C2CCCCC2)c1 [Example 21]

SMILES: CCCCOc1ccccc1C(=O)Nc1ccccc1C(=O)Nc1cccc(S(=O)(=O)C(F)(F)F)c1 [Example 180, 2-Butoxy-N-(2-((3-((trifluoromethyl)sulfonyl)phenyl)carbamoyl)phenyl)benzamide]
EC50 (cAMP in THP-1 cells; THP-1, 0.5 h): 124 nM

SMILES: CCCCOc1ccccc1C(=O)Nc1ccccc1C(=O)Nc1cccc(S(=O)(=O)C(F)(F)F)c1 [Example 180]
Emax (RXFP1; read-out: Max Response): 98% | Emax (RXFP1; [3]): 98%

SMILES: CCCOc1ccccc1C(=O)Nc1ccccc1C(=O)Nc1cccc(S(=O)(=O)C(F)(F)F)c1 [Example 179, 2-Propoxy-N-(2-((3-((trifluoromethyl)sulfonyl)phenyl)carbamoyl)phenyl)benzamide]
Relative VEGF gene expression (control = 1.0) [1]: 1.5 | EC50 (cAMP in THP-1 cells; THP-1, 0.5 h): 105 nM

Emax (RXFP1; [2]): 45%
SMILES: O=C(NCc1ccco1)c1ccccc1NC(=O)c1ccccc1NC(=O)C1CCCCC1 [Example 44]

SMILES: CCOc1ccccc1C(=O)Nc1ccccc1C(=O)Nc1cccc(C(F)(F)F)c1 [Example 99]
solubility (PBS solubility): 1.7 µM (≈ 0.728 µg/mL) | AC50 (RXFP1; Table 10, read-out: RXFP1 AC50 (μM, Max. Resp.): AC50): 0.297 µM | Emax (RXFP1; [2]): 94% | Emax (RXFP1; [3]): 95% | Emax (RXFP2; 0.5 h, read-out: RXFP2 AC50 (μM, Max. Resp.): Max. Resp.): 47% | AC50 (RXFP2; HEK293-RXFP2 cells, inactive = Maximum response less than 30%, read-out: RXFP2 AC50 (μM, Max. Resp.): AC50): 9.4 µM

SMILES: O=C(Nc1cccc(S(=O)(=O)C(F)(F)F)c1)c1ccccc1NC(=O)c1ccccc1OCC(F)(F)F [Example 177]
Emax (RXFP1; read-out: Max Response): 97% | Emax (RXFP1; [3]): 97%

SMILES: COc1ccccc1C(=O)Nc1ccccc1C(=O)Nc1cccc(SC(F)(F)F)c1 [Compound 158]
EC50 (cAMP in THP-1 cells; [4]): 523 nM

Emax (RXFP1; [2]): 74%
SMILES: O=C(Nc1ccc(F)cc1)c1ccccc1NC(=O)C1CCCCC1 [Example 13]

SMILES: CC(=O)Nc1ccccc1C(=O)Nc1cccc(C(F)(F)F)c1 [Example 47]
Emax (RXFP1; read-out: Max Response): 51%

Emax (RXFP1; [2]): 70%
SMILES: O=C(Nc1cccc(C(F)(F)F)c1)c1ccccc1NC(=O)c1ccccc1C(F)(F)F [Example 70]

SMILES: O=C(Nc1cccc(S(=O)(=O)C(F)(F)F)c1)c1ccccc1NC(=O)c1ccccc1OCC(F)(F)F [Example 177, 2-(2,2,2-Trifluoroethoxy)-N-(2-((3-((trifluoromethyl)sulfonyl)phenyl)carbamoyl)phenyl)benzamide]
EC50 (cAMP in THP-1 cells; THP-1, 0.5 h): 107 nM

Emax (RXFP1; [2]): 36%
SMILES: CCOc1ccccc1-c1nc2ccccc2c(=O)n1-c1cccc(-c2nnn[nH]2)c1 [Example 143]

Emax (RXFP1; [2]): 80%
SMILES: O=C(Nc1ccccc1C(=O)Nc1cccc(C(F)(F)F)c1)c1ccccc1I [Example 86]

SMILES: CCOc1ccccc1C(=O)Nc1ccccc1C(=O)Nc1cccc(C(F)(F)F)c1 [Compound 99, 2-Ethoxy-N-(2-((3-(trifluoromethyl)phenyl)carbamoyl)phenyl)benzamide]
Relative VEGF gene expression (control = 1.0) [1]: 1.9 | EC50 (cAMP in THP-1 cells; [4]): 471 nM

SMILES: COc1ccccc1C(=O)Nc1ccccc1C(=O)Nc1cccc(S(=O)(=O)C(F)(F)F)c1 [Example 159]
Emax (RXFP1; read-out: Max Response): 99% | Emax (RXFP1; [3]): 99%

SMILES: CC(C)Oc1ccccc1C(=O)Nc1ccccc1C(=O)Nc1cccc(S(=O)(=O)C(F)(F)F)c1 [Example 178, 2-Isopropoxy-N-(2-(3-(trifluoromethylsulfonyl)phenylcarbamoyl)phenyl)benzamide]
EC50 (cAMP in THP-1 cells; [4]): 200 nM

AC50 (RXFP1; [5]): 1.49 µM | Emax (RXFP1; [2]): 91%
SMILES: C/C=C\c1cccc(NC(=O)c2ccccc2NC(=O)c2ccccc2OCC)c1 [Example 169]

AC50 (RXFP1; [5]): 11.8 µM | Emax (RXFP1; [2]): 72%
SMILES: CCOc1ccccc1C(=O)Nc1ccccc1C(=O)Nc1cncc(I)c1 [Example 165]

Emax (RXFP1; [2]): 95%
SMILES: CCSc1ccccc1C(=O)Nc1ccccc1C(=O)Nc1cccc(S(=O)(=O)C(F)(F)F)c1 [Example 176]

SMILES: COc1ccccc1C(=O)Nc1ccccc1C(=O)Nc1cccc(S(=O)(=O)C(F)(F)F)c1 [Compound 159, 2-Methoxy-N-(2-((3-((trifluoromethyl)sulfonyl)phenyl)carbamoyl)phenyl)benzamide]
EC50 (cAMP in THP-1 cells; [4]): 358 nM

Source: patent US10125112B2, “Modulators of the relaxin receptor 1” (The United States of America, as Represented by the …, priority 2012, dated 2018)
